{"source": "ChEMBL document CHEMBL5029198", "about": "“Water-Soluble Nystatin and Derivative” (ACS Med Chem Lett, 2022)", "key": {"[1]": {"system": "Candida albicans", "assay": "Antifungal activity against Candida albicans ATCC 10231 assessed as reduction in fungal growth incubated overnight by broth dilution method", "type": "functional"}, "[2]": {"system": "Aspergillus niger", "assay": "Antifungal activity against Aspergillus niger ATCC 20057 assessed as reduction in fungal growth incubated overnight by broth dilution method", "type": "functional"}, "[3]": {"assay": "Cytotoxicity against human HEp-2 cells assessed as reduction in cell viability incubated for 40 to 60 mins by resazurin dye based assay", "conditions": "time 40-60 min"}, "[4]": {"assay": "Hemolytic activity in human RBC at 0.25 mg/ml measured after 1 hr", "type": "ADME, tissue-based", "conditions": "erythrocyte"}, "[5]": {"assay": "Hemolytic activity in human RBC at 0.5 mg/ml measured after 1 hr relative to control", "type": "ADME, tissue-based, Erythrocyte", "conditions": "red blood cells, read-out: Activity"}, "[6]": {"assay": "Protein binding in human plasma assessed as unbound fraction at 0.05 mg/ml measured after 24 hrs by RP-HPLC analysis (Rvb= 0.014 mg/ml)", "type": "ADME, cell-free"}, "[7]": {"assay": "Protein binding in human plasma assessed as unbound fraction at 0.1 mg/ml measured after 24 hrs by RP-HPLC analysis (Rvb= 0.069 mg/ml)", "type": "ADME, cell-free"}, "[8]": {"assay": "Protein binding in human plasma assessed as unbound fraction at 0.1 mg/ml measured after 48 hrs by RP-HPLC analysis (Rvb= 0.069 mg/ml)", "type": "ADME, cell-free"}, "[9]": {"assay": "Protein binding in human plasma assessed as unbound fraction at 0.25 mg/ml measured after 24 hrs by RP-HPLC analysis (Rvb= 0.147 mg/ml)", "type": "ADME, cell-free"}, "[10]": {"assay": "Protein binding in human plasma assessed as unbound fraction at 0.25 mg/ml measured after 48 hrs by RP-HPLC analysis (Rvb= 0.147 mg/ml)", "type": "ADME, cell-free"}, "[11]": {"assay": "Protein binding in human plasma assessed as unbound fraction at 0.5 mg/ml measured after 24 hrs by RP-HPLC analysis (Rvb= 0.211 mg/ml)", "type": "ADME, cell-free"}, "[12]": {"assay": "Protein binding in human plasma assessed as unbound fraction at 0.5 mg/ml measured after 48 hrs by RP-HPLC analysis (Rvb= 0.211 mg/ml)", "type": "ADME, cell-free"}, "[13]": {"assay": "Protein binding in human plasma assessed as free fraction at 0.1 mg/ml measured after 48 hrs by RP-HPLC analysis relative to control", "type": "ADME, cell-free"}, "[14]": {"assay": "Protein binding in human plasma assessed as free fraction at 0.25 mg/ml measured after 48 hrs by RP-HPLC analysis relative to control", "type": "ADME, cell-free"}, "[15]": {"assay": "Protein binding in human plasma assessed as free fraction at 0.5 mg/ml measured after 48 hrs by RP-HPLC analysis relative to control", "type": "ADME, cell-free"}, "[16]": {"assay": "Protein binding in human plasma at 0.25 mg/ml measured after 24 hrs by RP-HPLC analysis relative to control", "type": "ADME, cell-free", "conditions": "read-out: PPB (converted)"}, "[17]": {"assay": "Protein binding in human plasma at 0.5 mg/ml measured after 24 hrs by RP-HPLC analysis relative to control", "type": "ADME, cell-free", "conditions": "read-out: PPB (converted)"}, "[18]": {"assay": "Stability of compound in human plasma assessed as retention time at 0.5 mg/ml measured after 6 hrs by HPLC analysis", "type": "ADME, cell-free"}, "[19]": {"assay": "Stability of compound in human plasma assessed as retention time at 0.5 mg/ml measured after 48 hrs by HPLC analysis", "type": "ADME, cell-free"}, "[20]": {"assay": "Aqueous solubility of compound at up to 100 mg/ml", "type": "physicochemical", "conditions": "buffer"}}, "note": "Where a SMILES comes first, the peptide text is derived from it. Bridges are numbered along the chain shown (N, C = ends). [ ]: non-standard residue; d: D form. The star is where a group is joined. X1 = CC[C@H](C)CCCCC(=O)*; Dab = NCC[C@H](N)C(=O)O", "data": [{"compound": "CC[C@H](C)CCCCC(=O)N[C@@H](CCN)C(=O)N[C@H](C(=O)N[C@@H](CCN)C(=O)N[C@H]1CCNC(=O)[C@H]([C@@H](C)O)NC(=O)[C@H](CCN)NC(=O)[C@H](CCN)NC(=O)[C@H](CC(C)C)NC(=O)[C@@H](Cc2ccccc2)NC(=O)[C@H](CCN)NC1=O)[C@@H](C)O", "note": "(X1-[Dab]T[Dab][Dab][Dab][dF]L[Dab][Dab]T; lactam 4-C)", "values": [{"measurement": "MIC", "setting": "[1]", "result": "> 35", "unit": "µg/mL"}, {"measurement": "MIC", "setting": "[2]", "result": "> 35", "unit": "µg/mL"}]}, {"compound": "CC(=O)O.C[C@@H]1[C@H](O)[C@@H](C)/C=C/C=C/CC/C=C/C=C/C=C/C=C/[C@H](O[C@@H]2O[C@H](C)[C@@H](O)[C@H](N)[C@@H]2O)C[C@@H]2O[C@](O)(C[C@@H](O)[C@H](O)CC[C@@H](O)C[C@@H](O)C[C@@H](O)CC(=O)O[C@H]1C)C[C@H](O)[C@H]2C(=O)NCCO", "values": [{"measurement": "MIC", "setting": "[1]", "result": 5, "unit": "µg/mL"}, {"measurement": "MIC", "setting": "[2]", "result": 23.6, "unit": "µg/mL"}, {"measurement": "CC50", "setting": "[3]", "result": 149, "unit": "µg/mL"}, {"measurement": "Activity", "setting": "[4]", "result": "Non-Toxic"}, {"measurement": "hemolysis at 1 h, 0.5 mg/ml", "setting": "[5]", "result": 62, "unit": "%"}, {"measurement": "Cp(f)", "setting": "[6]", "result": 13, "unit": "µg/mL"}, {"measurement": "Cp(f)", "setting": "[7]", "result": 42, "unit": "µg/mL"}, {"measurement": "Cp(f)", "setting": "[8]", "result": 30, "unit": "µg/mL"}, {"measurement": "Cp(f)", "setting": "[9]", "result": 120, "unit": "µg/mL"}, {"measurement": "Cp(f)", "setting": "[10]", "result": 100, "unit": "µg/mL"}, {"measurement": "Cp(f)", "setting": "[11]", "result": 168, "unit": "µg/mL"}, {"measurement": "Cp(f)", "setting": "[12]", "result": 137, "unit": "µg/mL"}, {"measurement": "fraction unbound at 48 h, 0.1 mg/ml", "setting": "[13]", "result": 0.3}, {"measurement": "fraction unbound at 48 h, 0.25 mg/ml", "setting": "[14]", "result": 0.4}, {"measurement": "fraction unbound at 48 h, 0.5 mg/ml", "setting": "[15]", "result": 0.274}, {"measurement": "fraction unbound at 24 h, 0.25 mg/ml", "setting": "[16]", "result": 0.48}, {"measurement": "fraction unbound at 24 h, 0.5 mg/ml", "setting": "[17]", "result": 0.34}, {"measurement": "Retention_time", "setting": "[18]", "result": 9.4, "unit": "min"}, {"measurement": "Retention_time", "setting": "[19]", "result": 6.5, "unit": "min"}, {"measurement": "solubility", "setting": "[20]", "result": "Soluble"}]}, {"compound": "NYSTATIN [listing 1 of 2 here]", "values": [{"measurement": "Activity", "setting": "[4]", "result": "Toxic"}]}, {"compound": "Clc1ccc(COC(Cn2ccnc2)c2ccc(Cl)cc2Cl)cc1", "note": "(configuration not stated) [ECONAZOLE]", "values": [{"measurement": "MIC", "setting": "[1]", "result": "> 35", "unit": "µg/mL"}, {"measurement": "MIC", "setting": "[2]", "result": "> 35", "unit": "µg/mL"}]}, {"compound": "CC(=O)O.COC(=O)[C@H]1[C@@H]2C[C@@H](O[C@@H]3O[C@H](C)[C@@H](O)[C@H](N)[C@@H]3O)/C=C/C=C/C=C/C=C/CC/C=C/C=C/[C@H](C)[C@@H](O)[C@@H](C)[C@H](C)OC(=O)C[C@H](O)C[C@H](O)C[C@H](O)CC[C@@H](O)[C@H](O)C[C@](O)(C[C@@H]1O)O2", "values": [{"measurement": "MIC", "setting": "[1]", "result": 30, "unit": "µg/mL"}, {"measurement": "MIC", "setting": "[2]", "result": "> 35", "unit": "µg/mL"}]}, {"compound": "C[C@@H]1[C@H](O)[C@@H](C)/C=C/C=C/C=C/C=C/C=C/C=C/C=C/[C@H](O[C@@H]2O[C@H](C)[C@@H](O)[C@H](N)[C@@H]2O)C[C@@H]2O[C@](O)(C[C@@H](O)C[C@@H](O)[C@H](O)CC[C@@H](O)C[C@@H](O)CC(=O)O[C@H]1C)C[C@H](O)[C@H]2C(=O)O", "note": "[AMPHOTERICIN B]", "values": [{"measurement": "MIC", "setting": "[1]", "result": 5, "unit": "µg/mL"}, {"measurement": "MIC", "setting": "[2]", "result": 31.5, "unit": "µg/mL"}, {"measurement": "CC50", "setting": "[3]", "result": 87, "unit": "µg/mL"}]}, {"compound": "NYSTATIN [listing 2 of 2 here]", "values": [{"measurement": "MIC", "setting": "[1]", "result": 10, "unit": "µg/mL"}, {"measurement": "MIC", "setting": "[2]", "result": 22.5, "unit": "µg/mL"}]}]}
